Legend:
Type in all cases: in vivo
[1] = tested on: Glycine max; assay: Herbicidal activity, preemergence test (Example 66); set-up: key: A rating of 0 indicates growth as untreated control; a rating of 9 indicates death; conditions: pre; 1000 g/ha; assessed visually twenty days after spraying
Experimental: (§1) To evaluate their herbicidal activity, compounds according to the invention are tested using a representative range of plants: ZEAMX Zea mays ORYSA Oryza sativa GLXMA Glycine max BEAVA Beta vulgaris LIUUT Linum usitatissimum AVEFA Avena fatua ECHCG Echinochloa crus-galli SINAL Sinapsis alba
(§2) The tests fall into two categories, preemergence and postemergence. The preemergence tests involve spraying a liquid formulation of the compound onto the soil in which the seeds of the plant species mentioned above have recently been sown. The postemergence tests involve spraying a liquid formulation of the compound onto seedling plants of the above species.
(§3) The soil used in the tests is a prepared horticultural loam.
(§4) The formulations used in the tests are prepared from solutions of the test compounds in acetone containing 0.4% by weight of an alkylphenol/ethylene oxide condensate available under the trademark TRITON X-155. These acetone solutions are diluted with water and the resulting formulations applied at dosage levels corresponding to 1000 g of active material per hectare in a volume equivalent to 900 litres per hectare.
(§5) In the preemergence tests, untreated sown soil, and in the postemergence tests, untreated soil bearing seedling plants, are used as controls.
(§6) The herbicidal effects of the test compounds are assessed visually twenty days after spraying the foliage and the soil and are recorded on a 0-9 scale. A rating of 0 indicates growth as untreated control, a rating of 9 indicates death. An increase of 1 unit on the linear scale approximates to an 11% increase in the level of effect.

[2] = tested on: Beta vulgaris; assay: as above; set-up: key: A rating of 0 indicates growth as untreated control; a rating of 9 indicates death; conditions: pre; 1000 g/ha; assessed visually twenty days after spraying
Experimental: as §1, §2, §3, §4, §5, §6

[3] = tested on: Zea mays; assay: as above; set-up: key: A rating of 0 indicates growth as untreated control; a rating of 9 indicates death; conditions: pre; 1000 g/ha; assessed visually twenty days after spraying
Experimental: as §1, §2, §3, §4, §5, §6

[4] = tested on: Oryza sativa; assay: as above; set-up: key: A rating of 0 indicates growth as untreated control; a rating of 9 indicates death; conditions: pre; 1000 g/ha; assessed visually twenty days after spraying
Experimental: as §1, §2, §3, §4, §5, §6

[5] = tested on: Sinapsis alba; assay: as above; set-up: key: A rating of 0 indicates growth as untreated control; a rating of 9 indicates death; conditions: pre; 1000 g/ha; assessed visually twenty days after spraying
Experimental: as §1, §2, §3, §4, §5, §6

[6] = tested on: Avena fatua; assay: as above; set-up: key: A rating of 0 indicates growth as untreated control; a rating of 9 indicates death; conditions: pre; 1000 g/ha; assessed visually twenty days after spraying
Experimental: as §1, §2, §3, §4, §5, §6

[7] = tested on: Echinochloa crus-galli; assay: as above; set-up: key: A rating of 0 indicates growth as untreated control; a rating of 9 indicates death; conditions: pre; 1000 g/ha; assessed visually twenty days after spraying
Experimental: as §1, §2, §3, §4, §5, §6

[8] = tested on: Linum usitatissimum; assay: as above; set-up: key: A rating of 0 indicates growth as untreated control; a rating of 9 indicates death; conditions: pre; 1000 g/ha; assessed visually twenty days after spraying
Experimental: as §1, §2, §3, §4, §5, §6

[9] = tested on: Beta vulgaris; assay: Herbicidal activity, postemergence test (Example 66); set-up: key: A rating of 0 indicates growth as untreated control; a rating of 9 indicates death; conditions: post; 1000 g/ha; assessed visually twenty days after spraying
Experimental: as §1, §2, §3, §4, §5, §6

[10] = tested on: Zea mays; assay: as above; set-up: key: A rating of 0 indicates growth as untreated control; a rating of 9 indicates death; conditions: post; 1000 g/ha; assessed visually twenty days after spraying
Experimental: as §1, §2, §3, §4, §5, §6

[11] = tested on: Oryza sativa; assay: as above; set-up: key: A rating of 0 indicates growth as untreated control; a rating of 9 indicates death; conditions: post; 1000 g/ha; assessed visually twenty days after spraying
Experimental: as §1, §2, §3, §4, §5, §6

[12] = tested on: Sinapsis alba; assay: as above; set-up: key: A rating of 0 indicates growth as untreated control; a rating of 9 indicates death; conditions: post; 1000 g/ha; assessed visually twenty days after spraying
Experimental: as §1, §2, §3, §4, §5, §6

[13] = tested on: Avena fatua; assay: as above; set-up: key: A rating of 0 indicates growth as untreated control; a rating of 9 indicates death; conditions: post; 1000 g/ha; assessed visually twenty days after spraying
Experimental: as §1, §2, §3, §4, §5, §6

[14] = tested on: Echinochloa crus-galli; assay: as above; set-up: key: A rating of 0 indicates growth as untreated control; a rating of 9 indicates death; conditions: post; 1000 g/ha; assessed visually twenty days after spraying
Experimental: as §1, §2, §3, §4, §5, §6

[15] = tested on: Linum usitatissimum; assay: as above; set-up: key: A rating of 0 indicates growth as untreated control; a rating of 9 indicates death; conditions: post; 1000 g/ha; assessed visually twenty days after spraying
Experimental: as §1, §2, §3, §4, §5, §6

[16] = tested on: Glycine max; assay: as above; conditions: post; 1000 g/ha; assessed visually twenty days after spraying
Experimental: as §1, §2, §3, §4, §5, §6

[17] = tested on: Ipomoea hederacea; assay: Postemergence herbicidal activity (Example 67); conditions: pos, 800 g/ha
Method in brief: (§7)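 Rating followed 10–21 days of greenhouse growth after treatment. Treatment was a single spray at a dose of 800 g/ha (400 L/ha spray volume) applied to plants 3–6 weeks old, using a water-diluted acetone solution containing 0.5% Triton X-155.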

[18] = tested on: Setaria viridis; assay: Postemergence herbicidal activity (Example 67); conditions: pos, 800 g/ha
Method in brief: as §7

[19] = tested on: Alopecurus myosuroides; assay: Postemergence herbicidal activity (Example 67); conditions: pos, 800 g/ha
Method in brief: as §7

[20] = tested on: Zea mays; assay: Postemergence herbicidal activity (Example 67); conditions: pos, 800 g/ha
Method in brief: as §7

[21] = tested on: Hordeum vulgare; assay: Postemergence herbicidal activity (Example 67); conditions: pos, 800 g/ha
Method in brief: as §7

[22] = tested on: Galium aparine; assay: Postemergence herbicidal activity (Example 67); conditions: pos, 800 g/ha
Method in brief: as §7

[23] = tested on: Veronica persica; assay: Postemergence herbicidal activity (Example 67); conditions: pos, 800 g/ha
Method in brief: as §7

[24] = tested on: Triticum aestivum; assay: Postemergence herbicidal activity (Example 67); conditions: pos, 800 g/ha
Method in brief: as §7

[25] = tested on: Chenopodium album; assay: Postemergence herbicidal activity (Example 67); conditions: pos, 800 g/ha
Method in brief: as §7

[26] = tested on: Helianthus annuus; assay: Postemergence herbicidal activity (Example 67); conditions: pos, 800 g/ha
Method in brief: as §7

[27] = tested on: Abutilon theophrasti; assay: Postemergence herbicidal activity (Example 67); conditions: pos, 800 g/ha
Method in brief: as §7

[28] = tested on: Amaranthus retroflexus; assay: Postemergence herbicidal activity (Example 67); conditions: pos, 800 g/ha
Method in brief: as §7

[29] = tested on: Alopecurus myosuroides; assay: Preemergence herbicidal activity (Example 67); conditions: pre, 800 g/ha
Method in brief: (§8)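 Soil surface of seeded cups sprayed with compound (800g/ha, 400 L/ha volume) from acetone/0.5% TRITON X-155 solutions diluted in water. Herbicidal effect scored on a rating scale roughly 1-3 weeks later, plants held in greenhouse.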

[30] = tested on: Triticum aestivum; assay: Preemergence herbicidal activity (Example 67); conditions: pre, 800 g/ha
Method in brief: as §8

[31] = tested on: Hordeum vulgare; assay: Preemergence herbicidal activity (Example 67); conditions: pre, 800 g/ha
Method in brief: as §8

[32] = tested on: Setaria viridis; assay: Preemergence herbicidal activity (Example 67); conditions: pre, 800 g/ha
Method in brief: as §8

[33] = tested on: Ipomoea hederacea; assay: Preemergence herbicidal activity (Example 67); conditions: pre, 800 g/ha
Method in brief: as §8

[34] = tested on: Zea mays; assay: Preemergence herbicidal activity (Example 67); conditions: pre, 800 g/ha
Method in brief: as §8

[35] = tested on: Galium aparine; assay: Preemergence herbicidal activity (Example 67); conditions: pre, 800 g/ha
Method in brief: as §8

[36] = tested on: Veronica persica; assay: Preemergence herbicidal activity (Example 67); conditions: pre, 800 g/ha
Method in brief: as §8

[37] = tested on: Chenopodium album; assay: Preemergence herbicidal activity (Example 67); conditions: pre, 800 g/ha
Method in brief: as §8

[38] = tested on: Helianthus annuus; assay: Preemergence herbicidal activity (Example 67); conditions: pre, 800 g/ha
Method in brief: as §8

[39] = tested on: Abutilon theophrasti; assay: Preemergence herbicidal activity (Example 67); conditions: pre, 800 g/ha
Method in brief: as §8

[40] = tested on: Amaranthus retroflexus; assay: Preemergence herbicidal activity (Example 67); conditions: pre, 800 g/ha
Method in brief: as §8

Row | SMILES | herbicidal effects on a 0-9 scale, GLXMA [1] | herbicidal effects on a 0-9 scale, BEAVA [2] | herbicidal effects on a 0-9 scale, ZEAMX [3] | herbicidal effects on a 0-9 scale, ORYSA [4] | herbicidal effects on a 0-9 scale, SINAL [5] | herbicidal effects on a 0-9 scale, AVEFA [6] | herbicidal effects on a 0-9 scale, ECHCG [7] | herbicidal effects on a 0-9 scale, LIUUT [8] | herbicidal effects on a 0-9 scale, BEAVA [9] | herbicidal effects on a 0-9 scale, ZEAMX [10] | herbicidal effects on a 0-9 scale, ORYSA [11] | herbicidal effects on a 0-9 scale, SINAL [12] | herbicidal effects on a 0-9 scale, AVEFA [13] | herbicidal effects on a 0-9 scale, ECHCG [14] | herbicidal effects on a 0-9 scale, LIUUT [15] | herbicidal effects on a 0-9 scale, GLXMA [16] | IPO HE rating [17] | SET VI rating [18] | ALO MY rating [19] | ZEA MX rating [20] | further results
1 | CC(C)c1nsc(C(=O)NC(C)c2cccs2)n1 (racemic) [Example 1, (R/S)-3-Isopropyl-[1,2,4]thiadiazole-5-carboxylic acid, [1-(2-thienyl)ethyl]amide] | 0 | 7 | 0 | 0 | 7 | 2 | 5 | 2 | 9 | 0 | 0 | 9 | 5 | 9 | 9 | 6 |  |  |  |  | 
2 | CC(NC(=O)c1nc(-c2ccccc2)ns1)c1cccs1 (racemic) [Example 4, (R/S)-3-Phenyl-[1,2,4]thiadiazole-5-carboxylic acid, [1-(2-thienyl)ethyl]amide] | 0 | 0 | 0 | 0 | 0 | 0 | 0 | 0 | 8 | 0 | 0 | 8 | 5 | 8 | 7 | 5 |  |  |  |  | 
3 | CC(NC(=O)c1nc(C(C)(C)C)ns1)c1cccs1 (racemic) [Example 6, (R/S)-3-tert-Butyl-[1,2,4]thiadiazole-5-carboxylic acid, [1-(2-thienyl)ethyl]amide] | 0 | 9 | 0 | 0 | 7 | 0 | 0 | 3 | 9 | 0 | 2 | 9 | 7 | 9 | 9 | 7 |  |  |  |  | 
4 | O=C(Nc1ccccc1)c1nsc(-c2cccc(C(F)(F)F)c2)n1 [Example 64] |  |  |  |  |  |  |  |  |  |  |  |  |  |  |  |  | 0 | 4 (30-44%) | 2 (6-15%) | 1 (1-5%) | HOR VW rating [21]: 1 (1-5%); GAL AP rating [22]: 0; VER PE rating [23]: 0; TRZ AW rating [24]: 2 (6-15%); CHE AL rating [25]: 0; HEL AN rating [26]: 0; ABU TH rating [27]: 1 (1-5%); AMA RE rating [28]: 0; ALO MY rating [29]: 0; TRZ AW rating [30]: 2 (6-15%); HOR VW rating [31]: 0; SET VI rating [32]: 2 (6-15%); IPO HE rating [33]: 3 (16-29%); ZEA MX rating [34]: 0; GAL AP rating [35]: 0; VER PE rating [36]: 0; CHE AL rating [37]: 0; HEL AN rating [38]: 0; ABU TH rating [39]: 0; AMA RE rating [40]: 0
5 | O=C(Nc1cccc(F)c1)c1nsc(-c2cccc(C(F)(F)F)c2)n1 [Example 65] |  |  |  |  |  |  |  |  |  |  |  |  |  |  |  |  | 1 (1-5%) | 0 | 1 (1-5%) | 0 | HOR VW rating [21]: 1 (1-5%); GAL AP rating [22]: 0; VER PE rating [23]: 0; TRZ AW rating [24]: 3 (16-29%); CHE AL rating [25]: 0; HEL AN rating [26]: 0; ABU TH rating [27]: 0; AMA RE rating [28]: 0; ALO MY rating [29]: 4 (30-44%); TRZ AW rating [30]: 2 (6-15%); HOR VW rating [31]: 0; SET VI rating [32]: 0; IPO HE rating [33]: 3 (16-29%); ZEA MX rating [34]: 0; GAL AP rating [35]: 0; VER PE rating [36]: 0; CHE AL rating [37]: 1 (1-5%); HEL AN rating [38]: 0; ABU TH rating [39]: 3 (16-29%); AMA RE rating [40]: 0

Source: patent publication EP0726261A1, “Herbidical 1,2,4 thiadiazoles” (American Cyanamid Company, priority 1995, dated 1996)
